Test results reported in US8124637B2, “Anthra [1, 2-d]imidazole-6,11-dione derivatives, preparation method and application thereof” (National Defense Medical Center, priority 2010, dated 2012).

Legend:
MDA-MB-468 = assay: NCI 60-cell drug screen, one dose; assay type: cell-based, human; conditions: Breast Cancer MDA-MB-468, 1.00E−5 Molar
Protocol: (§1) In brief, cellular protein levels were determined after 48 hours of drug exposure by sulforhodamine B colorimetry.
(§2) The screening system in United State National Cancer Institute (NCI) consists of 60 kinds of different human cancer cells, which can be used to assay the growth-inhibiting ability or cell toxicity of a compound against various cancer and tumor at a certain concentration. The NCI had selected 6 compounds synthesized above, and performed cell toxicity assay against 60 kinds of cancer cell strains (Table 2) (DTP Human Tumor Cell Line Screen), in which each compound was assayed at a certain concentration to observe its inhibition ability or cell toxicity against various kinds of cancer and tumor.

HOP-92 = assay: NCI 60-cell drug screen, one dose; assay type: cell-based, human; conditions: Non-Small Cell Lung Cancer HOP-92, 1.00E−5 Molar
Protocol: as §1, §2

[1] = NCI 60-cell drug screen, one dose; assay type: cell-based, human; conditions: Renal Cancer A489, 1.00E−5 Molar
Protocol: as §1, §2

MALME-3M = assay: NCI 60-cell drug screen, one dose; assay type: cell-based, human; conditions: Melanoma MALME-3M, 1.00E−5 Molar
Protocol: as §1, §2

T-47D = assay: NCI 60-cell drug screen, one dose; assay type: cell-based, human; conditions: Breast Cancer T-47D, 1.00E−5 Molar
Protocol: as §1, §2

SF-295 = assay: NCI 60-cell drug screen, one dose; assay type: cell-based, human; conditions: CNS Cancer SF-295, 1.00E−5 Molar
Protocol: as §1, §2

SW-620 = assay: NCI 60-cell drug screen, one dose; assay type: cell-based, human; conditions: Colon Cancer SW-620, 1.00E−5 Molar
Protocol: as §1, §2

HCC-2998 = assay: NCI 60-cell drug screen, one dose; assay type: cell-based, human; conditions: Colon Cancer HCC-2998, 1.00E−5 Molar
Protocol: as §1, §2

UO-31 = assay: NCI 60-cell drug screen, one dose; assay type: cell-based, human; conditions: Renal Cancer UO-31, 1.00E−5 Molar
Protocol: as §1, §2

KM12 = assay: NCI 60-cell drug screen, one dose; assay type: cell-based, human; conditions: Colon Cancer KM12, 1.00E−5 Molar
Protocol: as §1, §2

SK-MEL-5 = assay: NCI 60-cell drug screen, one dose; assay type: cell-based, human; conditions: Melanoma SK-MEL-5, 1.00E−5 Molar
Protocol: as §1, §2

CCRF-CEM = assay: NCI 60-cell drug screen, one dose; assay type: cell-based, human; conditions: Leukemia CCRF-CEM, 1.00E−5 Molar
Protocol: as §1, §2

MDA-MB-231/ATCC = assay: NCI 60-cell drug screen, one dose; assay type: cell-based, human; conditions: Breast Cancer MDA-MB-231/ATCC, 1.00E−5 Molar
Protocol: as §1, §2

ACHN = assay: NCI 60-cell drug screen, one dose; assay type: cell-based, human; conditions: Renal Cancer ACHN, 1.00E−5 Molar
Protocol: as §1, §2

MCF7 = assay: NCI 60-cell drug screen, one dose; assay type: cell-based, human; conditions: Breast Cancer MCF7, 1.00E−5 Molar
Protocol: as §1, §2

SF-268 = assay: NCI 60-cell drug screen, one dose; assay type: cell-based, human; conditions: CNS Cancer SF-268, 1.00E−5 Molar
Protocol: as §1, §2

OVCAR-5 = assay: NCI 60-cell drug screen, one dose; assay type: cell-based, human; conditions: Ovarian Cancer OVCAR-5, 1.00E−5 Molar
Protocol: as §1, §2

SR = assay: NCI 60-cell drug screen, one dose; assay type: cell-based, human; conditions: Leukemia SR, 1.00E−5 Molar
Protocol: as §1, §2

HCT-116 = assay: NCI 60-cell drug screen, one dose; assay type: cell-based, human; conditions: Colon Cancer HCT-116, 1.00E−5 Molar
Protocol: as §1, §2

SNB-75 = assay: NCI 60-cell drug screen, one dose; assay type: cell-based, human; conditions: CNS Cancer SNB-75, 1.00E−5 Molar
Protocol: as §1, §2

IGROV1 = assay: NCI 60-cell drug screen, one dose; assay type: cell-based, human; conditions: Ovarian Cancer IGROV1, 1.00E−5 Molar
Protocol: as §1, §2

NCI/ADR-RES = assay: NCI 60-cell drug screen, one dose; assay type: cell-based, human; conditions: Ovarian Cancer NCI/ADR-RES, 1.00E−5 Molar
Protocol: as §1, §2

DU145 = assay: NCI 60-cell drug screen, one dose; assay type: cell-based, human; conditions: Prostate Cancer DU145, 1.00E−5 Molar
Protocol: as §1, §2

M14 = assay: NCI 60-cell drug screen, one dose; assay type: cell-based, human; conditions: Melanoma M14, 1.00E−5 Molar
Protocol: as §1, §2

UACC-62 = assay: NCI 60-cell drug screen, one dose; assay type: cell-based, human; conditions: Melanoma UACC-62, 1.00E−5 Molar
Protocol: as §1, §2

[2] = MTT assay (relative cell survival), H1299; conditions: human, H1299 non-small cell lung cancer cells (PhTERT-SEAP), Relative MTT viability (%)
Protocol: Further, cells were subjected to MTT assay to compare the relative toxicity or effect of each compound on cell proliferation and activity.
The above-described cells are cultured in a 96-well plate, to which was added with 25 μl MTT solution, and cultured in a 37° C. carbon dioxide incubator for 4 hours. Then, 100 μl Lysis buffer is added and incubated in a 37° C. carbon dioxide incubator overnight. An ELISA reader (Bio-Rad Model 450) is used to read optical density (O.D.) at 550 nm.
After being subjected to different compound treatments for 72 hours, cells were treated with a fixed amount of MTT solution for 28 hours. Then, DMSO was used to dissolve back formazan, an O. D. value was detected at wavelength in the range of 550/670 nm, and calculated accordingly the cell survival rate (as shown in Table 1).

[3] = tested on: 60 kinds of different human cancer cells; assay: NCI 60-cell drug screen, one dose, whole panel; assay type: cell-based; conditions: mean over the tested cell lines, 1.00E−5 Molar
Protocol: as §1, §2

PC-3 = assay: NCI 60-cell drug screen, one dose; assay type: cell-based, human; conditions: Prostate Cancer PC-3, 1.00E−5 Molar
Protocol: as §1, §2

MOLT-4 = assay: NCI 60-cell drug screen, one dose; assay type: cell-based, human; conditions: Leukemia MOLT-4, 1.00E−5 Molar
Protocol: as §1, §2

A549/ATCC = assay: NCI 60-cell drug screen, one dose; assay type: cell-based, human; conditions: Non-Small Cell Lung Cancer A549/ATCC, 1.00E−5 Molar
Protocol: as §1, §2

OVCAR-8 = assay: NCI 60-cell drug screen, one dose; assay type: cell-based, human; conditions: Ovarian Cancer OVCAR-8, 1.00E−5 Molar
Protocol: as §1, §2

SMILES | Growth Percent (MDA-MB-468) [%] | Growth Percent (HOP-92) [%] | Growth Percent [1] [%] | Growth Percent (MALME-3M) [%] | Growth Percent (T-47D) [%] | Growth Percent (SW-620) [%] | Growth Percent (UO-31) [%] | Growth Percent (KM12) [%] | Growth Percent (SK-MEL-5) [%] | Growth Percent (MDA-MB-231/ATCC) [%] | Growth Percent (ACHN) [%] | Growth Percent (MCF7) [%] | Growth Percent (SF-268) [%] | Growth Percent (OVCAR-5) [%] | Growth Percent (HCT-116) [%] | Growth Percent (SNB-75) [%] | Growth Percent (IGROV1) [%] | Growth Percent (DU145) [%] | Growth Percent (M14) [%] | Growth Percent (UACC-62) [%] | also measured
CCN(CC)Cc1nc2ccc3c(c2[nH]1)C(=O)c1ccccc1C3=O [CL04, 2-((diethylamino)methyl)-1H-anthra[1,2-d]imidazole-6,11-dione] | 54.46 | 56.11 | 49.50 | 98.45 | 83.55 | 60.46 | 27.21 | 76.89 | 68.20 | 75.52 | 48.41 | 51.13 | 74.04 | 96.50 | 48.22 | 82.03 | 13.61 | 73.54 | 97.86 | 68.47 | Growth Percent (SF-295): 89.56%; Growth Percent (HCC-2998): 80.61%; Growth Percent (CCRF-CEM): 47.88%; Growth Percent (SR): 42.38%; Growth Percent (NCI/ADR-RES): 65.32%; viability at 72 h, 1 µM [2]: 101 ± 6.67%; viability at 72 h, 10 µM [2]: > 50%; Growth Percent, Mean [3]: 69.66%
O=C1c2ccccc2C(=O)c2c1ccc1nc(CN3CCCCC3)[nH]c21 [CL16, 2-((piperidin-1-yl)methyl)-1H-anthra[1,2-d]imidazole-6,11-dione] | 58.32 | 80.97 | 61.84 | 119.68 | 69.11 | 71.72 | 42.93 | 77.40 | 65.73 | 77.93 | 47.11 | 42.74 | 58.46 | 101.70 | 62.12 | 86.42 | 54.22 | 74.90 | 100.82 | 74.61 | Growth Percent (PC-3): 81.94%; Growth Percent (HCC-2998): 82.81%; Growth Percent (CCRF-CEM): 102.47%; Growth Percent (SR): 57.64%; Growth Percent (MOLT-4): 22.77%; Growth Percent (NCI/ADR-RES): 73.52%; viability at 72 h, 1 µM [2]: 111 ± 8.66%; viability at 72 h, 100 µM [2]: 19.6%; Growth Percent, Mean [3]: 75.35%
CN1CCN(Cc2nc3ccc4c(c3[nH]2)C(=O)c2ccccc2C4=O)CC1 [CL24, 2-((4-methylpiperazin-1-yl)methyl)-1H-anthra[1,2-d]imidazole-6,11-dione] | 71.59 | 9.17 | 69.36 | 89.63 | 97.08 | 44.22 | 22.93 | 55.51 | 77.46 | 61.66 | 33.08 | 36.71 | 51.16 | 97.72 | 27.73 | 69.87 | 12.05 | 60.08 | 97.20 | 81.12 | Growth Percent (SF-295): 81.61%; Growth Percent (HCC-2998): 61.90%; Growth Percent (CCRF-CEM): 34.45%; Growth Percent (SR): 21.48%; viability at 72 h, 1 µM [2]: 87.4 ± 5.52%; viability at 72 h, 10 µM [2]: < 50%; Growth Percent, Mean [3]: 59.85%
O=C1c2ccccc2C(=O)c2c1ccc1nc(CN3CCN(c4ccccc4)CC3)[nH]c21 [CL27, 2-((4-phenylpiperazin-1-yl)methyl)-1H-anthra[1,2-d]imidazole-6,11-dione] | 72.75 | 178.61 | 75.09 | 119.09 | 66.35 | 90.92 | 58.33 | 85.80 | 74.84 | 90.47 | 86.32 | 66.08 | 80.44 | 107.63 | 78.28 | 70.93 | 69.25 | 90.69 | 106.33 | 93.36 | Growth Percent (PC-3): 77.91%; Growth Percent (A549/ATCC): 111.76%; Growth Percent (SF-295): 105.37%; Growth Percent (CCRF-CEM): 74.42%; Growth Percent (SR): 43.11%; Growth Percent (MOLT-4): 55.21%; Growth Percent (OVCAR-8): 80.89%; Growth Percent (NCI/ADR-RES): 80.36%; Growth Percent, Mean [3]: 90.15%
O=C1c2ccccc2C(=O)c2c1ccc1nc(CN3CCN(c4ccccn4)CC3)[nH]c21 [CL28, 2-((4-(pyridin-2-yl)piperazin-1-yl)methyl)-1H-anthra[1,2-d]imidazole-6,11-dione] | 53.92 | 93.87 | 68.23 | 124.77 | 56.78 | 85.97 | 60.42 | 95.03 | 83.56 | 72.65 | 80.61 | 81.99 | 79.15 | 110.77 | 84.30 | 82.14 | 91.25 | 81.46 | 103.99 | 85.13 | Growth Percent (PC-3): 89.10%; Growth Percent (A549/ATCC): 91.07%; Growth Percent (SF-295): 92.70%; Growth Percent (HCC-2998): 92.28%; Growth Percent (MOLT-4): 61.76%; Growth Percent (OVCAR-8): 88.07%; Growth Percent (NCI/ADR-RES): 81.16%; viability at 72 h, 1 µM [2]: 90.5 ± 4.34%; viability at 72 h, 10 µM [2]: 69.5%; viability at 72 h, 100 µM [2]: 19.8%; Growth Percent, Mean [3]: 87.65%
